From patent publication US11795151B2, “Benzotriazole compound” (MIYOSHI OIL & FAT CO., LTD., priority 2017, dated 2023) come the findings set out here.

One data set is described as follows: Evaluation of UV absorption performance (2): absorbance spectra in chloroform. The conditions noted are these: 100 μM, 10-mm quartz cell. In kind it is physicochemical. As to the method:
Compounds 11 to 28 were diluted with 100 μM of chloroform and placed in a 10-mm quartz cell, and the absorbance spectra were measured using an ultraviolet-visible spectrophotometer (V-550, manufactured by JASCO Corporation)(FIGS. 11,12,14 to 29).
The absorption peak (maximum absorption wavelength: max) and absorbance in the wavelength range of 350 to 390 nm were read from the absorption spectra of Compounds 11 to 28, and a molar extinction coefficient (maximum molar extinction coefficient: εmax) of the peak was obtained by the following formula (Table 7): Molar extinction coefficient:εmax(L/(mol·cm))=A:Absorbance/[c:Mol concentration(mol/L)×1:Cell optical length(cm)] [Equation 3]
In addition, from the absorption spectra of Compounds 11 to 28, assuming that an intersection of a long-wavelength side absorption spectrum in the absorption peak at 350 to 390 nm and a baseline (a line where the slope of the absorption spectrum at […] is zero) is set as a peak end (for example: FIG. 1), the absolute value of the slope of the absorption peak on the long-wavelength side in the wavelength region at 350 to 390 nm was obtained by the following equation (Table 8): |Slope of absorption peak on long wavelength side in wavelength region of 350 to 390n|=|(Absorbance at peak end−Absorbance at absorption peak in wavelength region of 350 to 390 nm)/(Absorption wavelength at peak end−Wave length at absorption peak in wavelength region of 350 to 390 nm)| [Equation 4]
Regarding `CC(=O)OCCSc1ccc2nn(-c3cc(C)cc(C(C)(C)C)c3O)nc2c1` [Compound 13], the “Absorbance at absoprtion peak in wavelength region of 350 to 390 nm” value (shortened to “Absorbance at absoprtion peak”) came to 2.22, the “Absorbance at peak end” value was 0.0302, the “Absorption wavelength at peak end” value is 419 nm and the “Molar extinction coefficient at peak (maximum molar extinction coefficient: εmax)” value (from here on “Molar extinction coefficient at peak”) came to 22200 L/mol/cm. Also, the “Wave length at absorption peak in wavelength region of 350 to 390 nm (maximum absorption wavelength: λmax)” value (shortened to “Wave length at absorption peak”) stood at 365 nm.
For `Cc1cc(-n2nc3ccc(SCCOC(=O)c4ccccc4)cc3n2)c(O)c(C(C)(C)C)c1` [Compound 14], the “Absorbance at absoprtion peak” value amounted to 2.21, the “Absorbance at peak end” value is on record as 0.02594, the “Absorption wavelength at peak end” value came to 419 nm and the “Molar extinction coefficient at peak” value amounted to 22100 L/mol/cm. The “Wave length at absorption peak” value is given as 365 nm.
With `CCCCCCCCCCCCCCCCCC(=O)OCCCCCCSc1ccc2nn(-c3cc(C)cc(C(C)(C)C)c3O)nc2c1` [Compound 16], the “Absorbance at absoprtion peak” value was 2.22, the “Absorbance at peak end” value was determined as 0.01846, the “Absorption wavelength at peak end” value is 420 nm and the “Molar extinction coefficient at peak” value was determined as 22200 L/mol/cm. For the same compound, the “Wave length at absorption peak” value was 367 nm.
On the same counts, the results for `CC(=O)Oc1ccc(Sc2ccc3nn(-c4cc(C)cc(C(C)(C)C)c4O)nc3c2)cc1` [Compound 17] are 2.24, 0.01899, 422 nm, 22400 L/mol/cm and 366 nm.
Consider `CCCCCCCCCCCCCCCCCC(=O)Oc1ccc(Sc2ccc3nn(-c4cc(C)cc(C(C)(C)C)c4O)nc3c2)cc1` [Compound 18], for which the “Absorbance at absoprtion peak” value was 2.22, the “Absorbance at peak end” value came out at 0.02575, the “Absorption wavelength at peak end” value came out at 420 nm and the “Molar extinction coefficient at peak” value turned out to be 22200 L/mol/cm. Besides, the “Wave length at absorption peak” value is reported as 366 nm.
Turning to `Cc1cc(-n2nc3ccc(Sc4ccc(OC(=O)c5ccccc5)cc4)cc3n2)c(O)c(C(C)(C)C)c1` [Compound 19], the “Absorbance at absoprtion peak” value amounted to 2.29, the “Absorbance at peak end” value came to 0.02244, the “Absorption wavelength at peak end” value amounted to 422 nm and the “Molar extinction coefficient at peak” value amounted to 22900 L/mol/cm. Further, the “Wave length at absorption peak” value worked out at 366 nm.
For `CCCCCCCCCCCCCCCCCCNC(=O)OCCCCCCSc1ccc2nn(-c3cc(C)cc(C(C)(C)C)c3O)nc2c1` [Compound 20], the “Absorbance at absoprtion peak” value is given as 2.20, the “Absorbance at peak end” value was determined as 0.00489, the “Absorption wavelength at peak end” value is recorded as 423 nm and the “Molar extinction coefficient at peak” value is 22000 L/mol/cm. Moreover, the “Wave length at absorption peak” value is 368 nm.
Take `CC(=O)Nc1ccc(Sc2ccc3nn(-c4cc(C)cc(C(C)(C)C)c4O)nc3c2)cc1` [Compound 21]: the “Absorbance at absoprtion peak” value was found to be 2.24, the “Absorbance at peak end” value is 0.00955, the “Absorption wavelength at peak end” value was 424 nm and the “Molar extinction coefficient at peak” value came out at 22400 L/mol/cm. The “Wave length at absorption peak” value is recorded as 369 nm.
Take `CCCCCCCCCCCCCCCCCC(=O)Nc1ccc(Sc2ccc3nn(-c4cc(C)cc(C(C)(C)C)c4O)nc3c2)cc1` [Compound 22]: the “Absorbance at absoprtion peak” value is given as 2.23, the “Absorbance at peak end” value stood at 0.01382, the “Absorption wavelength at peak end” value worked out at 424 nm and the “Molar extinction coefficient at peak” value came to 22300 L/mol/cm. In addition, the “Wave length at absorption peak” value amounted to 369 nm.
On the same counts, the results for `Cc1cc(-n2nc3ccc(Sc4ccc(NC(=O)c5ccccc5)cc4)cc3n2)c(O)c(C(C)(C)C)c1` [Compound 23] are 2.34, 0.01418, 424 nm, 23400 L/mol/cm and 369 nm.
Regarding `Cc1cc(-n2nc3ccc(Sc4ccc(NC(=O)c5ccc6ccccc6c5)cc4)cc3n2)c(O)c(C(C)(C)C)c1` [Compound 24], the “Absorbance at absoprtion peak” value is on record as 2.36, the “Absorbance at peak end” value was found to be 0.02, the “Absorption wavelength at peak end” value is given as 424 nm and the “Molar extinction coefficient at peak” value was 23600 L/mol/cm. The “Wave length at absorption peak” value was 368 nm.
In the same order, the values of `CCNC(=O)Nc1ccc(Sc2ccc3nn(-c4cc(C)cc(C(C)(C)C)c4O)nc3c2)cc1` [Compound 25] are 2.27, 0.0174, 424 nm, 22700 L/mol/cm and 370 nm.
For the compound `CCCCCCCCCCCCCCCCCCNC(=O)Nc1ccc(Sc2ccc3nn(-c4cc(C)cc(C(C)(C)C)c4O)nc3c2)cc1` [Compound 26], the “Absorbance at absoprtion peak” value is listed as 2.17, the “Absorbance at peak end” value was determined as 0.1501, the “Absorption wavelength at peak end” value is 419 nm and the “Molar extinction coefficient at peak” value came to 21700 L/mol/cm. Besides, the “Wave length at absorption peak” value is given as 368 nm.
On the same counts, the results for `Cc1cc(-n2nc3ccc(Sc4ccc(NC(=O)Nc5ccccc5)cc4)cc3n2)c(O)c(C(C)(C)C)c1` [Compound 27] are 2.39, 0.01868, 425 nm, 23900 L/mol/cm and 369 nm.
In the same order, the values of `COc1ccc(NC(=O)Nc2ccc(Sc3ccc4nn(-c5cc(C)cc(C(C)(C)C)c5O)nc4c3)cc2)cc1` [Compound 28] are 2.26, 0.01853, 423 nm, 22600 L/mol/cm and 370 nm.

Another data set is described as follows: Evaluation of UV absorption performance (1): absorbance spectra in chloroform. Format: physicochemical. The conditions noted are these: 100 μM, 10-mm quartz cell. As to the method: Compounds 1 to 12 were diluted with 100 μM of chloroform, placed in a 10-mm quartz cell, and the absorbance spectra were measured using an ultraviolet-visible spectrophotometer (V-550, manufactured by JASCO Corporation)(FIGS. 1 to 12).
The absorption peak (maximum absorption wavelength: λmax) and absorbance in the wavelength range of 350 to 390 nm were read from the absorption spectra of Compounds 1 to 12, and the molar extinction coefficient of the peak (maximum molar extinction coefficient: εmax) was obtained by the following equation (able 1). Molar extinction coefficient:εmax(L/(mol·cm))=A:Absorbance/[c:Mol concentration(mol/L)×1:Cell optical length(cm)] [Equation 1]
In addition, from the absorption spectra of Compounds 1 to 12, assuming that an intersection of a long-wavelength side absorption spectrum in the absorption peak at 350 to 390 nm and a baseline (a line where the slope of the absorption spectrum at 380 to 500 nm is zero) is set as a […] (for example: FIG. 1), the absolute value of the slope of the absorption peak on the long-wavelength side in the wavelength region at 350 to 390 nm was obtained by the following equation: |Slope of absorption peak on long wavelength side in wavelength region of 350 to 390 nm|=|(Absorbance at peak end−Absorbance at absorption peak in wavelength region of 350 to 390 nm)/(Absorption wavelength at peak end−Wave length at absorption peak in wavelength region of 350 to 390 nm)| [Equation 2]
In the case of `CCCCCCCCCCCCC/C=C/C(=O)OCCCCCCSc1ccc2nn(-c3cc(C)cc(C(C)(C)C)c3O)nc2c1` [Compound 9], the “Absorbance at absorption peak in wavelength region of 350 to 390 nm” value stood at 2.14, the “Absorbance at peak end” value is reported as 0.00702, the “Absorption wavelength at peak end” value was 422 nm and the “Molar extinction coefficient at peak” value was determined as 21100 L/mol/cm. For the same compound, the “Wave length at absorption peak” value was determined as 368 nm.
